Article PMC9031804, “The Peptide-Drug Conjugate TH1902: A New Sortilin Receptor-Mediated Cancer Therapeutic against Ovarian and Endometrial Cancers” (Cancers, 2022)

How the values were obtained:
[1] = system: A2780 ovarian cancer xenografts; test: A2780 ovarian cancer xenograft tumor growth; type: in vivo, human tumor in female athymic nude mice; conditions: single agent 10 mg/kg IV bi-weekly
From the text: Animals were obtained from Charles River Laboratories, Inc. and allowed to acclimate for 5 days before experiments. Female CD-1 nude mice (Crl:CD1-Foxn1^nu, 4–6 weeks old; ES-2) or athymic nude mice (Crl:NU(NCr)-Foxn1^nu, 4–6 weeks old; SKOV3, A2780, AN3-CA) were used for the xenograft tumor models. Mice were maintained in a pathogen-free environment and handled in accordance with the Guidelines of the Canadian Council on Animal Care. Animal protocols were approved by the Institutional Animal Care and Use Committee of Université du Québec à Montréal (0620-C1R1-897-0621).
Tumor xenografts were established by subcutaneous inoculation of 5 × 10^6 cells (ES-2) or 7 × 10^6 cells (SKOV3) in 150 µL of HBSS; other xenografts were established by subcutaneous inoculation of 5 × 10^6 cells (A2780) or 2 × 10^6 cells (AN3-CA) in 150 µL of HBSS/Matrigel (50:50). All cells were injected into the right flanks of immunodeficient mice under light isoflurane anesthesia. The injection schedules and doses of injected substances are detailed in the figures. Briefly, when palpable ES-2, SKOV3 or AN3-CA tumors reached a volume of ~100 mm^3, mice were treated weekly with either vehicle, docetaxel (3.75 or 15 mg/kg) or TH1902 (8.75 or 35 mg/kg) at equivalent docetaxel amounts via intravenous (IV) tail vein injection. Note that three cycles of 15 mg/kg docetaxel is the maximum tolerated dose in mice and that 35 mg/kg TH1902 contains the same quantity of docetaxel (bis-linked to the peptide). In A2780 xenografts, when palpable tumors reached a volume of ~250 mm^3, mice were treated with either vehicle, paclitaxel (10 mg/kg, IV), carboplatin (40 mg/kg, intraperitoneal (IP)), docetaxel (10 mg/kg, IV) or TH1902 (23 mg/kg, IV) bi-weekly as single agents or once on Day-0 as combinations with carboplatin. For combination treatments, both taxanes and TH1902 were injected 1 h following carboplatin administrations at the doses previously described. Injectable solutions were prepared as follows: TH1902 was solubilized at 10 mg/mL in 10% Tween-80 in D5W (pH 4.3, w/v) then further diluted with D5W; docetaxel was solubilized at 25 mg/mL in ethanol and Tween-80 (50/50, v/v) then further diluted with D5W; paclitaxel was solubilized at 25 mg/mL in ethanol and Cremophor EL (50/50, v/v) then further diluted in saline; carboplatin was solubilized at 50 mg/mL in water then further diluted in a solution of 30% PEG400 and 5% Tween-80 in D5W (w/v); vehicle composition and preparation mimicked highest dose of TH1902 preparation. Tumor growth was monitored by two-dimensional measurements taken with an electronic caliper and tumor volume was calculated according to the following formula: tumor volume (mm^3) = π/6 × length × width^2. Data are expressed as mean ± SEM and were analyzed using GraphPad Prism software.
Figure 8 Effects of TH1902 and carboplatin combinations on A2780 ovarian cancer xenografts. A2780 cells were subcutaneously implanted in the flanks of athymic nude mice. Tumor volume measurements following bi-weekly administrations of (A) vehicle, docetaxel, TH1902, paclitaxel or carboplatin as single agents, or (B) administered once in combination using the same dosage as described in the methods section. Colored dots below indicate drug treatments for all groups. Data are represented as mean ± SEM (n = 5 mice/group).

[2] = ref [38]; cited from earlier work
From the text: Taxanes, mainly paclitaxel and docetaxel, are well-known microtubule stabilizers used in various cancer including ovarian and endometrial cancer first-line therapies in the last thirty years. […] Here, the new chemical entity TH1902 is distinct from the docetaxel molecule as it selectively exploits SORT1’s internalization properties to trigger cell apoptosis in ES-2 and ...

[3] = system: SORT1 in ES-2 ovarian cancer cells; test: Competition of TH19P01-Alexa^488 uptake, ES-2; type: cell-based, human; conditions: 10 µM neurotensin, 2 h, n = 4
Procedure: (§1) Cells were grown in 12-well plates in complete media for 24 h. Where required, cells were transiently transfected with 100 nM of siRNA (either a scrambled, control siRNA, or one that was directed against a particular mRNA) for 24 h using Lipofectamine 2000. Cells were next washed with PBS and then incubated in HBSS without phenol red for 2 h at 37 °C in the presence or absence of 200 nM Alexa^488-labeled TH19P01 peptide. Alexa^488-labeled TH19P01 peptide uptake was also measured with or without competition by an excess of unlabeled TH19P01 peptide (50 µM) or neurotensin (10 µM) during a 2 h uptake before washing with serum-free media. Cell fluorescence was evaluated in the FL1 channel using a C6 Accuri flow cytometer (BD Biosciences, Mississauga, ON, Canada).
(§2) Figure 4 Internalization of TH19P01-Alexa^488 peptide by SORT1 in ovarian cancer cell lines. […] (B) Uptake of TH19P01-Alexa^488 into two ovarian cancer cell lines was measured in the presence of excess concentrations of substrates known to bind to SORT1 (50 µM TH19P01 and 10 µM neurotensin). […] Results are expressed as normalized RFU according to measurements of control wells. […]

[4] = system: SORT1 in SKOV3 ovarian cancer cells; test: Competition of TH19P01-Alexa^488 uptake, SKOV3; type: cell-based, human; conditions: 10 µM neurotensin, 2 h, n = 4
Procedure: as §1, §2

Compound | Tumor growth inhibition [1] | Tumor progression, Size Increase (x-Fold Day-0) ([1]; vehicle group endpoint, n = 5 mice/group) | Water solubility [2] | TH19P01-Alexa^488 uptake with neurotensin [3] | TH19P01-Alexa^488 uptake with neurotensin [4]
CC(=O)O[C@H]1C(=O)[C@@]2(C)[C@H]([C@H](OC(=O)c3ccccc3)[C@]3(O)C[C@H](OC(=O)[C@H](O)[C@@H](NC(=O)c4ccccc4)c4ccccc4)C(C)=C1C3(C)C)[C@]1(OC(C)=O)CO[C@@H]1C[C@@H]2O [Paclitaxel, paclitaxel] | 36% | 4.21 x-Fold Day-0 | very poor water solubility |  | 
neurotensin: known ligand of SORT1, synthesized in-house |  |  |  | reduced | reduced
